Reference: patent US20250051729A1, “METHOD FOR PREPARING HIGHLY DIFFERENTIATED KIDNEY ORGANOIDS” (RGENORGANO BIOTECHNOLOGY CO., LTD., priority 2021, published 2025)
Entries after “also recorded” stand apart in the source; their conditions may differ.

What was measured:
[1] = system: human iPSC-derived kidney organoids; experiment: Confocal imaging of PECAM1+ vasculature around NPHS1+ or WT1+ glomerular structure in kidney organoids; format: cell-based; settings: Protocol B: VEGF (days 6, 9, 12, 14) and 10 μM Compound 1 (day 12) added together to Protocol A; FIG. 2A
Procedure: While Protocol B was largely similar to Protocol A, to enhance a vascular network, VEGF (10 ng/ml, 20 ng/ml, 30 ng/ml, and 50 ng/ml each) was treated on days 6, 9, 12, and 14, and to enhance podocyte differentiation, 10 μM Compound 1 was treated on day 12. For immunofluorescent analysis, organoids were fixed on day 18 unless otherwise noted. Specifically, for fixation, equal volumes of PBS (Thermo Fisher Scientific) and 8% paraformaldehyde (Electron Microscopy Sciences) were added to a medium for 15 minutes, and then the sample was washed with PBS three times. Subsequently, the fixed organoid culture was blocked with 5% donkey serum (Millipore)+0.3% Triton-X-100/PBS. Afterward, the blocked organoid culture was incubated in PBS containing 3% bovine serum albumin (Sigma)+ primary antibodies [anti-acetylated tubulin (Sigma-Aldrich T7451, 1:200), anti-collagen IV (Southern Biotech 1340-01, 1:300), anti-cytokeratin 8 (Abcam ab9023, 1:200), anti-GATA3 (R&D AF2605, 1:200), anti-Gb3 (TCI […], 1:200), anti-GLA (Thermo Fisher Scientific PA5-27349, 1:1000), anti-laminin (Sigma-Aldrich L9393. 1:200), anti-LTL (Vector Labs FL-1321, 1:200 dilution), […]32 (BD Pharmingen 555849, 1:200), anti-NPHS1 ([…] (Abcam ab9498, 1:200), anti-TUBA4A (Abcam ab24610, 1:200), and anti-WT1 (Abcam ab89901, 1:200)] overnight, washed, and then incubated with Alexa Fluor secondary antibodies (Invitrogen). […]

[2] = system: GLA mutant kidney organoids; experiment: Immunofluorescent staining of Gb3 (Gb3 positive area) in GLA mutant kidney organoids; format: cell-based, human; settings: GLA mutant kidney organoids (Protocol B) after treatment with agalsidase-α (ERT); FIGS. 4D and 4E
Procedure: For immunofluorescent analysis, organoids were fixed on day 18 unless otherwise noted. Specifically, for fixation, equal volumes of PBS (Thermo Fisher Scientific) and 8% paraformaldehyde (Electron Microscopy Sciences) were added to a medium for 15 minutes, and then the sample was washed with PBS three times. Subsequently, the fixed organoid culture was blocked with 5% donkey serum (Millipore)+0.3% Triton-X-100/PBS. Afterward, the blocked organoid culture was incubated in PBS containing 3% bovine serum albumin (Sigma)+ primary antibodies [anti-acetylated tubulin (Sigma-Aldrich T7451, 1:200), anti-collagen IV (Southern Biotech 1340-01, 1:300), anti-cytokeratin 8 (Abcam ab9023, 1:200), anti-GATA3 (R&D AF2605, 1:200), anti-Gb3 (TCI A2506, 1:200), anti-GLA (Thermo Fisher Scientific PA5-27349, 1:1000), anti-laminin (Sigma-Aldrich L9393. 1:200), anti-LTL (Vector Labs FL-1321, 1:200 dilution), antiMECA32 (BD Pharmingen 555849, 1:200), anti-NPHS1 (R&D AF4269, 1:200), anti-Pecaml (Abcam ab9498, 1:200), anti-TUBA4A (Abcam ab24610, 1:200), and anti-WT1 (Abcam ab89901, 1:200)] overnight, washed, and then incubated with Alexa Fluor secondary antibodies (Invitrogen). Afterward, the resulting organoids were washed and stained with DAPI, or mounted using Vectashield H-1000. Images were obtained using a Zeiss LSM 700 confocal microscope (Carl Zeiss, Germany) and ZEN 3.1 software. […]

[3] = system: GLA mutant kidney organoids; experiment: Immunofluorescent staining of NPHS1, PECAM1 and LTL: vasculopathy phenotype in GLA mutant kidney organoids; format: cell-based, human; settings: GLA mutant kidney organoids produced by Protocol B, ERT; FIG. 4F
Procedure: For immunofluorescent analysis, organoids were fixed on day 18 unless otherwise noted. Specifically, for fixation, equal volumes of PBS (Thermo Fisher Scientific) and 8% paraformaldehyde (Electron Microscopy Sciences) were added to a medium for 15 minutes, and then the sample was washed with PBS three times. Subsequently, the fixed organoid culture was blocked with 5% donkey serum (Millipore)+0.3% Triton-X-100/PBS. […]
Next, the phenotype of the vasculopathy in Fabry disease was determined using GLA mutant kidney organoids produced by Protocol B. Immunofluorescent staining analyses of NPHS1, PECAM1, and LTL were conducted on the wild type, GLA mutant kidney organoids, and human recombinant agalsidase-α-treated GLA mutant kidney organoids.

VEGF
vascularization surrounding the glomerular structure [1]: significantly improved

NC(=O)c1ccc(-c2nc(-c3ccc4c(c3)OCO4)c(-c3ccccn3)[nH]2)cc1 [Compound 1, 4-[4-(1,3-benzodioxol-5-yl)-5-pyridin-2-yl-1H-imidazol-2-yl]benzamide, reference compound]
vascularization surrounding the glomerular structure [1]: significantly improved

B1: agalsidase-α: recombinant human agalsidase-α used as recombinant enzyme replacement therapy (ERT) (protein, UniProt P06280 32-429, looked up)
Alpha-galactosidase A: LDNGLARTPTMGWLHWERFMCNLDCQEEPDSCISEKLFMEMAELMVSEGWKDAGYEYLCIDDCWMAPQRDSEGRLQADPQRFPHGIRQLANYVHSKGLKLGIYADVGNKTCAGFPGSFGYYDIDAQTFADWGVDLLKFDGCYCDSLENLADGYKHMSLALNRTGRSIVYSCEWPLYMWPFQKPNYTEIRQYCNHWRNFADIDDSWKSIKSILDWTSFNQERIVDVAGPGGWNDPDMLVIGNFGLSWNQQVTQMALWAIMAAPLFMSNDLRHISPQAKALLQDKDVIAINQDPLGKQGYQLRQGDNFEVWERPLSGLAWAVAMINRQEIGGPRSYTIAVASLGKGVACNPACFITQLLPVKRKLGFYEWTSRLRSHINPTGTVLLQLENTMQMSLKDLL
Gb3 accumulation [2]: decreased
vascular network (glomerular angiogenesis and formation of large lumen vessels) [3]: restored the vascular network; also recorded: restored a vascular network
